According to the NIST ThermoML archive (doi:10.1016/j.fluid.2017.07.024):

How the values were obtained:
[1] = molar heat capacity at constant pressure; conditions: 101 kPa, Power-Compensation Calorimetry
[2] = wn = mass fraction of the nth substance listed; conditions: 101 kPa, Liquid, Capillary tube (Ostwald / Ubbelohde) method, w1 = 0.9
[3] = Liquid, Closed cell (Static) method

CCCCn1cc[n+](C)c1.[Br-] [1-butyl-3-methylimidazolium bromide]
molar heat capacity at constant pressure [J/K/mol], [1]
Conditions	283.15 K	293.15 K	303.15 K	313.15 K	323.15 K	333.15 K	343.15 K	353.15 K	363.15 K	373.15 K
Crystal	265.14	269.52	276.09	289.24	308.96	361.55	705.57	–	–	–
Liquid	–	–	–	–	–	–	–	352.79	359.36	363.74

CCCCn1cc[n+](C)c1.[Br-] [1-butyl-3-methylimidazolium bromide] + O
[2]
Conditions	kinematic viscosity [m2/s]
313.15 K	2.21e-05
323.15 K	1.56e-05
333.15 K	1.14e-05
343.15 K	8.58e-06
353.15 K	6.65e-06
363.15 K	5.34e-06
373.15 K	4.34e-06

O [water]
[3]
Conditions	vapor or sublimation pressure [kPa]
274.15 K	0.671
276.15 K	0.778
279.15 K	0.956
282.15 K	1.171
285.15 K	1.428
288.15 K	1.739
291.15 K	2.103
294.15 K	2.525
297.15 K	3.035
300.15 K	3.62
303.15 K	4.299
304.45 K	4.659
306.15 K	5.104
308.55 K	5.85
313.45 K	7.631
318.15 K	9.698
323.45 K	12.68
328.65 K	16.35
333.15 K	20.22
337.45 K	24.61
345.65 K	35.27
353.85 K	49.37
364.35 K	74.26
372.15 K	99.51
